Test results taken from patent US9302999B2, “Substituted triazoles as herbicides” (E. I. DU PONT DE NEMOURS AND COMPANY, priority 2012, dated 2016).
Read-outs that look alike come from different tables or passages of the source.

How the values were obtained:
Format in all cases: in vivo
[1] = tested on: chamomile (scentless chamomile, Matricaria inodora); assay: Test D pre-/postemergence: chamomile
Method in brief: (§1)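 Scores run from 0 (no effect) to 100 (complete control), assigned by visual comparison with controls after 14 to 21 days in a controlled environment. Both preemergence application to silt loam and postemergence application to 1- to 4-leaf plants were tested.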

[2] = tested on: canarygrass (Phalaris minor); assay: Test C postemergence: canarygrass
Method in brief: (§2)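 Plants at the 1- to 4-leaf stage (2 to 18 cm tall), grown in pots of peat moss/vermiculite planting medium, received postemergence applications of the formulated test chemicals. After 13 to 15 days in a greenhouse, injury was scored visually versus controls from 0 (no effect) to 100 (complete control).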

[3] = tested on: windgrass (Apera spica-venti); assay: Test D pre-/postemergence: windgrass
Method in brief: as §1

[4] = tested on: ducksalad (Heteranthera limosa); assay: Test C flooded paddy test: ducksalad; settings: Heteranthera limosa, scale 0 to 100 (0 no effect, 100 complete control), read-out: Plant response rating, Ducksalad; for pest or weed control at 62 g/ha: 62 g ai/ha; for pest or weed control at 125 g/ha: 125 g ai/ha; for pest or weed control at 250 g/ha: 250 g ai/ha; for pest or weed control at 31 g/ha: 31 g ai/ha
Method in brief: (§3)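 Rating: visual, 0–100 (100 = complete control), versus untreated controls after 13 to 15 greenhouse days. Treatment went into paddy water held at 3 cm over the soil, on plants grown to two leaves.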

[5] = tested on: cocklebur (common cocklebur, Xanthium strumarium); assay: Test C pre-/postemergence: cocklebur
Method in brief: (§4)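 Visual injury scored 0–100 (100 = complete control) against untreated controls after 13–15 greenhouse days. Surfactant-containing solvent formulations applied either to soil after sowing (loam/sand) or over 1- to 4-leaf plants, 2–18 cm tall.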

[6] = tested on: wheat, spring (spring wheat, Triticum aestivum); assay: Test D pre-/postemergence: wheat, spring
Method in brief: as §1

[7] = tested on: deadnettle (henbit deadnettle, Lamium amplexicaule); assay: Test C postemergence: deadnettle
Method in brief: as §2

[8] = tested on: barnyardgrass (Echinochloa crus-galli); assay: Test C flooded paddy test: barnyardgrass; settings: Echinochloa crus-galli, scale 0 to 100 (0 no effect, 100 complete control), read-out: Plant response rating, Barnyardgrass; for pest or weed control at 62 g/ha: 62 g ai/ha; for pest or weed control at 125 g/ha: 125 g ai/ha; for pest or weed control at 250 g/ha: 250 g ai/ha; for pest or weed control at 31 g/ha: 31 g ai/ha
Method in brief: as §3

[9] = tested on: woolly cupgrass (Eriochloa villosa); assay: Test C pre-/postemergence: woolly cupgrass
Method in brief: as §4

[10] = Postemergence, 31 g ai/ha, scale 0 to 100 (0 no effect, 100 complete control)
[11] = Postemergence, 62 g ai/ha, scale 0 to 100 (0 no effect, 100 complete control)
[12] = Postemergence, 125 g ai/ha, scale 0 to 100, 0 no effect, 100 complete control
[13] = Postemergence, 250 g ai/ha, scale 0 to 100 (0 no effect, 100 complete control)
[14] = Postemergence, 16 g ai/ha, scale 0 to 100
[15] = Preemergence, 16 g ai/ha, scale 0 to 100 (0 no effect, 100 complete control)
[16] = Preemergence, 31 g ai/ha, scale 0 to 100 (0 no effect, 100 complete control)
[17] = Preemergence, 62 g ai/ha, scale 0 to 100
[18] = Preemergence, 125 g ai/ha, scale 0 to 100
[19] = Preemergence, 250 g ai/ha, scale 0 to 100
[20] = 31 g ai/ha, scale 0 to 100 (0 no effect, 100 complete control)
[21] = 62 g ai/ha, scale 0 to 100 (0 no effect, 100 complete control)
[22] = 125 g ai/ha, scale 0 to 100, 0 no effect, 100 complete control
[23] = Flood (flooded paddy test), visual rating after 13 to 15 days
[24] = Postemergence, 250 g ai/ha, scale 0 to 100
[25] = Preemergence, 31 g ai/ha, scale of 0 to 100, 0 is no effect, 100 is complete control
[26] = Preemergence, 125 g ai/ha, scale 0 to 100, 0 no effect, 100 complete control
[27] = Preemergence, 250 g ai/ha, scale 0 to 100, 0 no effect, 100 complete control

Cc1nn(-c2ccc(F)cc2)nc1Cc1ccnc(C(F)(F)F)c1 [Compound 16, 4-[[2-(4-fluorophenyl)-5-methyl-2H-1,2,3-triazol-4-yl]methyl]-2-(trifluoromethyl)pyridine]
Plant response rating: Chamomile [1, 10]: 0 | Plant response rating: Chamomile [1, 11]: 0 | Plant response rating: Chamomile [1, 12]: 5 | Plant response rating: Chamomile [1, 13]: 10 | Plant response rating, Chamomile [1, 14]: 0 | Plant response rating, Chamomile [1, 15]: 0 | Plant response rating, Chamomile [1, 16]: 0 | Plant response rating, Chamomile [1, 17]: 25 | Plant response rating, Chamomile [1, 18]: 70 | Plant response rating, Chamomile [1, 19]: 100 | Plant response rating, Canarygrass [2, 20]: 20 | Plant response rating, Canarygrass [2, 21]: 60 | Plant response rating, Canarygrass [2, 22]: 60 | Plant response rating, Canarygrass ([2]; 250 g ai/ha, scale 0 to 100): 90 | Plant response rating: Windgrass [3, 10]: 10 | Plant response rating: Windgrass [3, 11]: 20 | Plant response rating: Windgrass [3, 12]: 25 | Plant response rating: Windgrass [3, 13]: 35 | Plant response rating, Windgrass [3, 14]: 0 | Plant response rating, Windgrass [3, 15]: 20 | Plant response rating, Windgrass [3, 16]: 20 | Plant response rating, Windgrass [3, 17]: 90 | Plant response rating, Windgrass [3, 18]: 100 | Plant response rating, Windgrass [3, 19]: 100 | pest or weed control at 62 g/ha [4, 23]: 85% | pest or weed control at 125 g/ha [4, 23]: 95% | pest or weed control at 250 g/ha [4, 23]: 100% | pest or weed control at 31 g/ha ([4]; Flood): 70% | Plant response rating, Cocklebur [5, 10]: 35 | Plant response rating, Cocklebur [5, 11]: 45 | Plant response rating, Cocklebur [5, 12]: 45 | Plant response rating, Cocklebur [5, 24]: 45 | Plant response rating: Wheat, Spring [6, 10]: 10 | Plant response rating: Wheat, Spring [6, 11]: 10 | Plant response rating: Wheat, Spring [6, 12]: 15 | Plant response rating: Wheat, Spring [6, 13]: 20 | Plant response rating, Wheat, Spring [6, 14]: 5 | Plant response rating, Wheat, Spring [6, 15]: 0 | Plant response rating, Wheat, Spring [6, 16]: 0 | Plant response rating, Wheat, Spring [6, 17]: 0 | Plant response rating, Wheat, Spring [6, 18]: 5 | Plant response rating, Wheat, Spring [6, 19]: 10 | Plant response rating, Deadnettle [7, 20]: 50 | Plant response rating, Deadnettle [7, 21]: 98 | Plant response rating, Deadnettle [7, 22]: 98 | Plant response rating, Deadnettle ([7]; 250 g ai/ha, scale 0 to 100): 100 | pest or weed control at 62 g/ha [8, 23]: 65% | pest or weed control at 125 g/ha [8, 23]: 70% | pest or weed control at 250 g/ha [8, 23]: 80% | pest or weed control at 31 g/ha ([8]; Flood): 25% | Plant response rating, Cupgrass, Woolly [9, 10]: 5 | Plant response rating, Cupgrass, Woolly [9, 11]: 20 | Plant response rating, Cupgrass, Woolly [9, 12]: 65 | Plant response rating, Cupgrass, Woolly [9, 24]: 75

Cc1nn(-c2ccc(F)cc2)nc1Oc1ccnc(C(F)(F)F)c1 [Compound 129, 4-[[2-(4-fluorophenyl)-5-methyl-2H-1,2,3-triazol-4-yl]oxy]-2-(trifluoromethyl)pyridine]
Plant response rating: Chamomile [1, 10]: 30 | Plant response rating: Chamomile [1, 11]: 30 | Plant response rating: Chamomile [1, 12]: 30 | Plant response rating: Chamomile [1, 13]: 35 | Plant response rating, Chamomile [1, 14]: 20 | Plant response rating, Chamomile [1, 15]: 0 | Plant response rating, Chamomile [1, 16]: 30 | Plant response rating, Chamomile [1, 17]: 30 | Plant response rating, Chamomile [1, 18]: 30 | Plant response rating, Chamomile [1, 19]: 100 | Plant response rating, Canarygrass [2, 20]: 30 | Plant response rating, Canarygrass [2, 21]: 45 | Plant response rating, Canarygrass [2, 22]: 50 | Plant response rating, Canarygrass ([2]; 250 g ai/ha, scale 0 to 100): 85 | Plant response rating: Windgrass [3, 10]: 20 | Plant response rating: Windgrass [3, 11]: 30 | Plant response rating: Windgrass [3, 12]: 70 | Plant response rating: Windgrass [3, 13]: 95 | Plant response rating, Windgrass [3, 14]: 15 | Plant response rating, Windgrass [3, 15]: 0 | Plant response rating, Windgrass [3, 16]: 0 | Plant response rating, Windgrass [3, 17]: 10 | Plant response rating, Windgrass [3, 18]: 75 | Plant response rating, Windgrass [3, 19]: 100 | pest or weed control at 125 g/ha [4, 23]: 80% | pest or weed control at 250 g/ha [4, 23]: 90% | pest or weed control at 31 g/ha ([4]; Flood): 70% | pest or weed control at 62 g/ha ([4]; Flood): 75% | Plant response rating, Cocklebur [5, 10]: 5 | Plant response rating, Cocklebur [5, 11]: 10 | Plant response rating, Cocklebur [5, 12]: 15 | Plant response rating, Cocklebur [5, 24]: 25 | Plant response rating, Cocklebur [5, 25]: 0 | Plant response rating, Cocklebur ([5]; Preemergence, 62 g ai/ha, scale 0 to 100, 0 no effect, 100 complete control): 0 | Plant response rating, Cocklebur [5, 26]: 0 | Plant response rating, Cocklebur [5, 27]: 0 | Plant response rating: Wheat, Spring [6, 10]: 10 | Plant response rating: Wheat, Spring [6, 11]: 10 | Plant response rating: Wheat, Spring [6, 12]: 15 | Plant response rating: Wheat, Spring [6, 13]: 20 | Plant response rating, Wheat, Spring [6, 14]: 5 | Plant response rating, Wheat, Spring [6, 15]: 0 | Plant response rating, Wheat, Spring [6, 16]: 0 | Plant response rating, Wheat, Spring [6, 17]: 0 | Plant response rating, Wheat, Spring [6, 18]: 5 | Plant response rating, Wheat, Spring [6, 19]: 15 | Plant response rating, Deadnettle [7, 20]: 100 | Plant response rating, Deadnettle [7, 21]: 100 | Plant response rating, Deadnettle [7, 22]: 100 | Plant response rating, Deadnettle ([7]; 250 g ai/ha, scale 0 to 100): 100 | pest or weed control at 125 g/ha [8, 23]: 80% | pest or weed control at 250 g/ha [8, 23]: 85% | pest or weed control at 31 g/ha ([8]; Flood): 55% | pest or weed control at 62 g/ha ([8]; Flood): 75% | Plant response rating, Cupgrass, Woolly [9, 10]: 35 | Plant response rating, Cupgrass, Woolly [9, 11]: 65 | Plant response rating, Cupgrass, Woolly [9, 12]: 65 | Plant response rating, Cupgrass, Woolly [9, 24]: 70 | Plant response rating, Cupgrass, Woolly [9, 25]: 80 | Plant response rating, Cupgrass, Woolly ([9]; Preemergence, 62 g ai/ha, scale of 0 to 100, 0 is no effect, 100 is complete control): 95 | Plant response rating, Cupgrass, Woolly [9, 26]: 98 | Plant response rating, Cupgrass, Woolly [9, 27]: 98
